According to PubChem BioAssay AID330 (DTP/NCI, 2004):
Several values for one entry are separate records, joined by “and”; a condition that tells them apart may be missing. Equal values may be shown once. Inconclusive results and toxic doses are left out. Peptide text beside a SMILES is read from it. * marks the point of attachment. Cbz = O=C(OCc1ccccc1)*

System: P388 leukemia ip, CD2F1 mice, survival T/C
Experiment: NCI In Vivo Anticancer Drug Screen. Data for tumor model P388 Leukemia (intraperitoneal) in CD2F1 (CDF1) mice
Settings: endpoint: median survival time, higher = longer survival
Outline: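 Mice carrying the transplanted tumor received test compound or vehicle. Survival was recorded in each group, and the value is the treated-group measurement divided by that of the vehicle-treated control group.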

[1] = dose: 25.0 mg/kg/injection, schedule: Q04DX003 (ip), vehicle: saline with Tween-80
[2] = dose: 50.0 mg/kg/injection, schedule: Q04DX003 (ip), vehicle: saline with Tween-80
[3] = dose: 100.0 mg/kg/injection, schedule: Q04DX003 (ip), vehicle: saline with Tween-80
[4] = dose: 50.0 mg/kg/injection, schedule: Q01DX005 (ip), vehicle: Klucel (hydroxypropylcellulose) (HPC)
[5] = dose: 100.0 mg/kg/injection, schedule: Q01DX005 (ip), vehicle: Klucel (hydroxypropylcellulose) (HPC)
[6] = dose: 200.0 mg/kg/injection, schedule: Q01DX005 (ip), vehicle: Klucel (hydroxypropylcellulose) (HPC)
[7] = dose: 100.0 mg/kg/injection, schedule: Q04DX002 (ip), vehicle: saline with Tween-80
[8] = dose: 200.0 mg/kg/injection, schedule: Q04DX002 (ip), vehicle: saline with Tween-80
[9] = dose: 400.0 mg/kg/injection, schedule: Q04DX002 (ip), vehicle: saline with Tween-80
[10] = dose: 50.0 mg/kg/injection, schedule: Q01DX009 (ip), vehicle: Klucel (hydroxypropylcellulose) (HPC)

## CCOP(=O)(N(CCCl)CCCl)N1CCc2ccccc2C1 (centres undefined)
dose: 12.5 mg/kg/injection, schedule: Q04DX003 (ip), vehicle: saline with Tween-80
  T/C: 103 % of control
[1]
  T/C: 98 % of control
[2]
  T/C: 103 % of control
[3]
  T/C: 110 % of control
dose: 200.0 mg/kg/injection, schedule: Q04DX003 (ip), vehicle: saline with Tween-80
  T/C: 112 % of control
dose: 400.0 mg/kg/injection, schedule: Q04DX003 (ip), vehicle: saline with Tween-80
  T/C: 119 % of control

## Nc1cc2c(c[n+](CCC[n+]3cc4c5ccccc5c(N)cc4c4ccccc43)c3ccccc23)c2ccccc12
dose: 3.13 mg/kg/injection, schedule: Q04DX003 (ip), vehicle: other
  T/C: 94 % of control
dose: 6.25 mg/kg/injection, schedule: Q04DX003 (ip), vehicle: other
  T/C: 102 % of control
dose: 12.5 mg/kg/injection, schedule: Q04DX003 (ip), vehicle: other
  T/C: 93 % of control
dose: 25.0 mg/kg/injection, schedule: Q04DX003 (ip), vehicle: other
  T/C: 92 % of control
dose: 50.0 mg/kg/injection, schedule: Q04DX003 (ip), vehicle: other
  T/C: 93 % of control
dose: 100.0 mg/kg/injection, schedule: Q04DX003 (ip), vehicle: other
  T/C: 86 % of control

## Cc1[nH]c2ccccc2c1CCCO
dose: 50.0 mg/kg/injection, schedule: Q01DX005 (ip), vehicle: saline
  T/C: 105 % of control
dose: 100.0 mg/kg/injection, schedule: Q01DX005 (ip), vehicle: saline
  T/C: 100 % of control
dose: 200.0 mg/kg/injection, schedule: Q01DX005 (ip), vehicle: saline
  T/C: 105 % of control

## CC1(C)CN2CCO[Si](CC[Si](C)(C)C)(OCC2)O1
[4]
  T/C: 105 % of control
[5]
  T/C: 105 % of control
[6]
  T/C: 102 % of control

## Clc1nn2ccnc2c2cccnc12
dose: 12.5 mg/kg/injection, schedule: Q04DX003 (ip), vehicle: Klucel (hydroxypropylcellulose) (HPC)
  T/C: 100 % of control
dose: 25.0 mg/kg/injection, schedule: Q04DX003 (ip), vehicle: Klucel (hydroxypropylcellulose) (HPC)
  T/C: 103 % of control

## CCCCN=C(c1ccc(O)cc1)c1ccc(OC)cc1O
dose: 60.0 mg/kg/injection, schedule: Q01DX005 (ip), vehicle: saline with Tween-80
  T/C: 108 % of control
dose: 120.0 mg/kg/injection, schedule: Q01DX005 (ip), vehicle: saline with Tween-80
  T/C: 92 % of control
dose: 240.0 mg/kg/injection, schedule: Q01DX005 (ip), vehicle: saline with Tween-80
  T/C: 99 % of control

## CC(C)CC(NC(=O)C(Cc1ccccc1)NC(=O)OCc1ccccc1)C(=O)O (stereo not drawn) (Cbz-Phe-Leu-OH; configuration not given here)
dose: 50.0 mg/kg/injection, schedule: Q01DX005 (ip), vehicle: saline with Tween-80
  T/C: 108 % of control
dose: 100.0 mg/kg/injection, schedule: Q01DX005 (ip), vehicle: saline with Tween-80
  T/C: 105 % of control

## CC1=CC(O)(C2(C)OC(C)(C)OC2=O)CCC1 (centres undefined)
dose: 100.0 mg/kg/injection, schedule: Q01DX001 (ip), vehicle: saline
  T/C: 100 % of control
dose: 200.0 mg/kg/injection, schedule: Q01DX001 (ip), vehicle: saline
  T/C: 100 % of control
dose: 400.0 mg/kg/injection, schedule: Q01DX001 (ip), vehicle: saline
  T/C: 100 % of control

## CN1CCc2nc(N)nc(-c3nc(N)nc4c3CN(C)CC4)c2C1
dose: 60.0 mg/kg/injection, schedule: Q01DX005 (ip), vehicle: saline
  T/C: 100 % of control
dose: 120.0 mg/kg/injection, schedule: Q01DX005 (ip), vehicle: saline
  T/C: 104 % of control
dose: 240.0 mg/kg/injection, schedule: Q01DX005 (ip), vehicle: saline
  T/C: 106 % of control

## NNc1ccc2nccn2n1
dose: 6.25 mg/kg/injection, schedule: Q01DX009 (ip), vehicle: saline with Tween-80
  T/C: 95 % of control
dose: 12.5 mg/kg/injection, schedule: Q01DX009 (ip), vehicle: saline with Tween-80
  T/C: 101 % of control
dose: 25.0 mg/kg/injection, schedule: Q01DX009 (ip), vehicle: saline with Tween-80
  T/C: 94 % of control

## CCOP1(=O)N(C)CCN1C
dose: 12.5 mg/kg/injection, schedule: Q01DX009 (ip), vehicle: saline
  T/C: 117 % of control
dose: 25.0 mg/kg/injection, schedule: Q01DX009 (ip), vehicle: saline
  T/C: 111 % of control
dose: 50.0 mg/kg/injection, schedule: Q01DX009 (ip), vehicle: saline
  T/C: 101 % of control

## NC(=O)[C@@H]1CC2CCC1C2 (some centres undefined)
[4]
  T/C: 88 % of control
[5]
  T/C: 93 % of control
[6]
  T/C: 87 % of control

## COc1cc2c(c(OC)c1OC)-c1ccc(SC)c(=O)cc1[C@@H](NC1OC(COC(C)=O)C(OC(C)=O)C(OC(C)=O)C1OC(C)=O)CC2 (some centres undefined)
dose: 0.75 mg/kg/injection, schedule: Q01DX009 (ip), vehicle: other
  T/C: 97 % of control
dose: 1.5 mg/kg/injection, schedule: Q01DX009 (ip), vehicle: other
  T/C: 97 % of control
dose: 3.0 mg/kg/injection, schedule: Q01DX009 (ip), vehicle: other
  T/C: 102 % of control
dose: 6.0 mg/kg/injection, schedule: Q01DX009 (ip), vehicle: other
  T/C: 107 % of control
dose: 12.0 mg/kg/injection, schedule: Q01DX009 (ip), vehicle: other
  T/C: 117 % of control
dose: 24.0 mg/kg/injection, schedule: Q01DX009 (ip), vehicle: other
  T/C: 120 % of control
dose: 192.0 mg/kg/injection, schedule: Q01DX009 (ip), vehicle: other
  T/C: 150 % of control

## CC(=O)OC1CC2(C)CCC3C(C)C(=O)OC3C2C(C)C1=O (centres undefined)
[7]
  T/C: 100 % of control
[8]
  T/C: 100 % of control
[9]
  T/C: 99 % of control and 100 % of control

## CCNC(=O)OCc1c(Cl)nc2n1CCS2
dose: 25.0 mg/kg/injection, schedule: Q01DX001 (ip), vehicle: Klucel (hydroxypropylcellulose) (HPC)
  T/C: 103 % of control
dose: 50.0 mg/kg/injection, schedule: Q01DX001 (ip), vehicle: Klucel (hydroxypropylcellulose) (HPC)
  T/C: 110 % of control
dose: 100.0 mg/kg/injection, schedule: Q01DX001 (ip), vehicle: Klucel (hydroxypropylcellulose) (HPC)
  T/C: 105 % of control

## O=C(O)CNC(=O)C(CN1CC(=O)OC1c1ccc([N+](=O)[O-])cc1)N1C(=O)c2ccccc2C1=O (centres undefined)
[1]
  T/C: 100 % of control
[2]
  T/C: 100 % of control

## Clc1cccc(Cl)c1CSc1nc2ccccc2n2cccc12
[10]
  T/C: 102 % of control
dose: 100.0 mg/kg/injection, schedule: Q01DX009 (ip), vehicle: Klucel (hydroxypropylcellulose) (HPC)
  T/C: 105 % of control
dose: 200.0 mg/kg/injection, schedule: Q01DX009 (ip), vehicle: Klucel (hydroxypropylcellulose) (HPC)
  T/C: 105 % of control

## FC(F)(F)c1ccccc1N=Nc1c(-c2ccccc2)nn(C(=S)S)c1-c1ccccc1
[7]
  T/C: 93 % of control
[8]
  T/C: 91 % of control
[9]
  T/C: 100 % of control

## COc1c2ccccc2c(OC)c2c(OC(C)=O)c3c(c(OC(C)=O)c12)CC=CC3
dose: 3.13 mg/kg/injection, schedule: Q01DX009 (ip), vehicle: other
  T/C: 96 % of control
dose: 6.25 mg/kg/injection, schedule: Q01DX009 (ip), vehicle: other
  T/C: 104 % of control
dose: 25.0 mg/kg/injection, schedule: Q01DX009 (ip), vehicle: other
  T/C: 93 % of control
dose: 50.0 mg/kg/injection, schedule: Q01DX009 (ip), vehicle: other
  T/C: 96 % of control

## CNC(=O)OCc1c(COC(=O)NC)c(-c2ccc(Cl)cc2)n2c1CCC2
dose: 6.25 mg/kg/injection, schedule: Q01DX009 (ip), vehicle: Klucel (hydroxypropylcellulose) (HPC)
  T/C: 150 % of control
dose: 12.5 mg/kg/injection, schedule: Q01DX009 (ip), vehicle: Klucel (hydroxypropylcellulose) (HPC)
  T/C: 94 % of control
dose: 25.0 mg/kg/injection, schedule: Q01DX009 (ip), vehicle: Klucel (hydroxypropylcellulose) (HPC)
  T/C: 88 % of control
[10]
  T/C: 104 % of control

## COC(=O)C12CN3CC(C)(C1)C(=O)C(C)(C3)C2=O (centres undefined)
dose: 30.0 mg/kg/injection, schedule: Q01DX005 (ip), vehicle: Klucel (hydroxypropylcellulose) (HPC)
  T/C: 100 % of control
dose: 60.0 mg/kg/injection, schedule: Q01DX005 (ip), vehicle: Klucel (hydroxypropylcellulose) (HPC)
  T/C: 103 % of control and 107 % of control
dose: 120.0 mg/kg/injection, schedule: Q01DX005 (ip), vehicle: Klucel (hydroxypropylcellulose) (HPC)
  T/C: 107 % of control
dose: 240.0 mg/kg/injection, schedule: Q01DX005 (ip), vehicle: Klucel (hydroxypropylcellulose) (HPC)
  T/C: 89 % of control

## CC(=O)Nc1c(Cl)c(Cl)c2c(c1Cl)Cc1cc(Br)ccc1-2
[3]
  T/C: 109 % of control
